From ChEMBL document CHEMBL5233249, “Recent advancements in the development of heterocyclic anti-inflammatory agents” (Eur J Med Chem, 2020) come the findings set out here.

For series [1], the system named is RAW264.7. Kind of series: Anti-inflammatory activity in mouse RAW264.7 cells assessed as inhibition of LPS-induced TNFalpha production measured after 24 hrs by EIA method relative to control. It counts as functional. Further details: scale not given: the % may be the effect or the level left.
The nature of series [2]: Cytotoxicity against mouse RAW264.7 cells assessed as decreased cell viability measured after 24 hrs by MTT assay. Type of series: toxicity, cell-based. A general note: Tetrazolium assays rely on reduction of a dye to a coloured formazan, in cell work by metabolically active cells.
Series [3] relates to RAW264.7. Kind of series: Anti-inflammatory activity in mouse RAW264.7 cells assessed as inhibition of LPS-induced reduction in TNFalpha production. It counts as functional, cell-based.
The next series relates to BV-2. The experiment in a line: Antineuroinflammatory activity against mouse BV-2 cells assessed as inhibition of LPS-induced NO production by Griess assay relative to control. It counts as functional. Also on record: scale not given: the % may be the effect or the level left.
The target in series [4] is T1, Prostaglandin G/H synthase 1 (Ovis aries, UniProt P05979).
T1 sequence (P05979 whole entry): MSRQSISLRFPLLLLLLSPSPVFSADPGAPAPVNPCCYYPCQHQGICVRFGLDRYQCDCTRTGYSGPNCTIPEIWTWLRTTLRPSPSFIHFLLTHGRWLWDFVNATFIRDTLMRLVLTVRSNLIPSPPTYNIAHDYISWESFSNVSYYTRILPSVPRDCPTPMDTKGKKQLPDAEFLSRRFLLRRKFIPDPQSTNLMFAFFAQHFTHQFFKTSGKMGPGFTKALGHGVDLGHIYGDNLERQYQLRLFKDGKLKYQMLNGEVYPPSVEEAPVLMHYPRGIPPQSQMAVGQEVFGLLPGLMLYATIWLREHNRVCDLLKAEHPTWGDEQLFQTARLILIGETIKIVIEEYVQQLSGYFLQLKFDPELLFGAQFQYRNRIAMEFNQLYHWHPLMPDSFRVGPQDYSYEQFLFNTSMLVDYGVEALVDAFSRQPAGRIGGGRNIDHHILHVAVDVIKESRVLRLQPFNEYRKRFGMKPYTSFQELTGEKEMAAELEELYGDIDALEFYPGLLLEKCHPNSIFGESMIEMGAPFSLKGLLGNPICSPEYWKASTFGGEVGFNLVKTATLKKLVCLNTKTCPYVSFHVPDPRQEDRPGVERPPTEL
The experiment in a line: Inhibition of ovine COX-1 at 1 uM.

Series [5] has as its target T2, Prostaglandin G/H synthase 2 (Homo sapiens, UniProt P35354).
T2 sequence (P35354 whole entry): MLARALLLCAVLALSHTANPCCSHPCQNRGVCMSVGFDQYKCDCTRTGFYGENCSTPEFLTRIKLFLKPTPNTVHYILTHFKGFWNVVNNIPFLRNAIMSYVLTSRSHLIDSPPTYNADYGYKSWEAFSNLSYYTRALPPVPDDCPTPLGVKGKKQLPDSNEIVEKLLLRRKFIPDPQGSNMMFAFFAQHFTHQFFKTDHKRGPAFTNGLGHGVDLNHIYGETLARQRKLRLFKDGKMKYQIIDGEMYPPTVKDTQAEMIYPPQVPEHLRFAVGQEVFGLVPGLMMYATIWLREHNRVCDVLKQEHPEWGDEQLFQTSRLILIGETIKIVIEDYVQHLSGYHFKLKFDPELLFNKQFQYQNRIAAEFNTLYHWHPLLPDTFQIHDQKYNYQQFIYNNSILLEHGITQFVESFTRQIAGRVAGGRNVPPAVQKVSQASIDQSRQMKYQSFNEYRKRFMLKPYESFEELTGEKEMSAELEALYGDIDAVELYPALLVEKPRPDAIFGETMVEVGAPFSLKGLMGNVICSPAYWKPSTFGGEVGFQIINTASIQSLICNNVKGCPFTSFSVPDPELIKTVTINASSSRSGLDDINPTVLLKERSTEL
The experiment in a line: Inhibition of human recombinant COX-2 at 1 uM.

Series [6] addresses T3, Polyunsaturated fatty acid lipoxygenase ALOX15 (Homo sapiens, UniProt P16050).
T3 sequence (P16050 whole entry): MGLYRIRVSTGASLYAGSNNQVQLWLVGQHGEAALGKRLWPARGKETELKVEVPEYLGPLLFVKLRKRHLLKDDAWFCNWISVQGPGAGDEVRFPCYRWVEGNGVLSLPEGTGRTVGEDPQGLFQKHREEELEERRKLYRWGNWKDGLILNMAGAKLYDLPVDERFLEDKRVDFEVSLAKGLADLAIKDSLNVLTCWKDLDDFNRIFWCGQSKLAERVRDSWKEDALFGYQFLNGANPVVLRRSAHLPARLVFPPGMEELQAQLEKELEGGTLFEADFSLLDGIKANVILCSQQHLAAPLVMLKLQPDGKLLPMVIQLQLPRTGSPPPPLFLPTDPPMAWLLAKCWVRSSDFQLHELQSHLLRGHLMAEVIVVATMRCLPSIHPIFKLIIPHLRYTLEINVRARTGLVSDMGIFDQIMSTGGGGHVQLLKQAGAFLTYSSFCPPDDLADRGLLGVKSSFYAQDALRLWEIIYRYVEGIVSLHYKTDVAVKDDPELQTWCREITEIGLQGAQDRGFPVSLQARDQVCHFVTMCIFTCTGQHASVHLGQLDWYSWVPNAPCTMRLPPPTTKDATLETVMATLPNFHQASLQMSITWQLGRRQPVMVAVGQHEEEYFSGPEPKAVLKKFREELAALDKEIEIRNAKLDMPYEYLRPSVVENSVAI
Kind of series: Inhibition of LOX (unknown origin) at 1 uM.

Series [7] concerns RAW264.7. The experiment in a line: Anti-inflammatory activity in mouse RAW264.7 cells assessed as inhibition of LPS-induced IL-6 production incubated for 1 hr by EIA relative to control. Type of series: functional.
The test system of series [8] is RAW264.7. The experiment in a line: Anti-inflammatory activity in mouse RAW264.7 cells assessed as inhibition of LPS-induced TNFalpha production incubated for 1 hr by EIA relative to control. Type of series: functional.
The test system of series [9] is Mus musculus. The experiment in a line: Anti-inflammatory activity against Carrageenan-induced paw edema in mouse model assessed as reduction in volume of edema at 100 mg/kg measured after 24 hrs relative to control. Type of series: functional. Also on record: scale not given: the % may be the effect or the level left.
Series [10] has as its target T4, Bifunctional epoxide hydrolase 2 (Homo sapiens, UniProt P34913).
T4 sequence (P34913 whole entry): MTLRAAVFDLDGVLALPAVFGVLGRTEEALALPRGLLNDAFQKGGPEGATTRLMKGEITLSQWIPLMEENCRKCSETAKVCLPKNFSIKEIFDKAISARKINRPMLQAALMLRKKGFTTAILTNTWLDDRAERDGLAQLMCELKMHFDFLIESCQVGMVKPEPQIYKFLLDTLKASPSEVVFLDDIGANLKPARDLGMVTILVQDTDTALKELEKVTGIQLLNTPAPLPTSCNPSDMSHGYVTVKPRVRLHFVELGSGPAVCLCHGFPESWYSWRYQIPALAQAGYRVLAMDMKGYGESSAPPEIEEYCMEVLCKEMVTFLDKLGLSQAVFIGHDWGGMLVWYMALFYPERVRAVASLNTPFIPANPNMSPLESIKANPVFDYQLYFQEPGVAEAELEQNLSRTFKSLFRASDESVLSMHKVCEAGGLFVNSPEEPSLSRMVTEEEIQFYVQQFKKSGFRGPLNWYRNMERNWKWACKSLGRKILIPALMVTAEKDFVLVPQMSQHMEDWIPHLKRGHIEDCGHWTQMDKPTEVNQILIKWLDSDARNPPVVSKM
Kind of series: Inhibition of human recombinant sEH.

Series [11] relates to Mus musculus. Kind of series: Anti-inflammatory activity against Carrageenan-induced paw edema in mouse model assessed as inhibition of edema at 100 mg/kg measured after 3 hrs relative to control. It counts as functional. Also on record: scale not given: the % may be the effect or the level left. (In general: In the carrageenan paw model, swelling and tenderness develop within hours.)

Regarding `CCc1ccc(C/C=C2\CCOc3cc(OC)cc(OC)c3C2=O)cc1`, the Activity in the series with RAW264.7 [1] is 96.4%; with BV-2 it was 87.9%. Besides, the CC50 at 24 h in [2] was 43.6 µM. In the series with RAW264.7 [3], the concentration for half-maximal inhibition (IC50) came out at 5.2 µM.
As to `COc1ccc(-c2nc3c(C(N)=O)cccc3[nH]2)cc1`, the IC50 in [4] worked out at 0.98 µM; in series [5], 11.6 µM; in series [6], 9.51 µM. Moreover, the “inhibition (INH)” value in the series with RAW264.7 [7] and with RAW264.7 [8] was 91% throughout.
Consider `c1ccc(N2CCN(c3cncc(-c4nc5ccccc5[nH]4)n3)CC2)cc1`, for which the Activity in the series on Mus musculus [9] was found to be 54.31%.
On to `O=C(O)c1ccc(CSc2nc3cc(F)c(-c4ncn[nH]4)cc3[nH]2)cc1`, for which the IC50 in series [10] was 0.7 µM. Also, the Activity with Mus musculus [11] stood at 66.3%.

The term CC50 denotes the concentration at which the toxic effect on the cells reaches its halfway point. As a reminder, the IC50 is the concentration that gives 50% inhibition.
